Tests used:
[1] = Apparent total plasma clearance in fed state healthy human at 800 mg, po administered as single dose; assay type: ADME, organism-based
[2] = Tmax in fasted state healthy human at 400 mg, po administered as single dose; assay type: ADME, organism-based; settings: in vivo
[3] = AUC (0 to infinity) in healthy human at 800 mg, po qd after 7 days; assay type: ADME, organism-based; parameters: dose 800 mg, route oral, time infinity; settings: plasma
[4] = Tmax in fed state healthy human at 800 mg, po administered as single dose; assay type: ADME, organism-based; settings: in vivo
[5] = Cmax in fed state healthy human at 1200 mg, po administered as single dose; assay type: ADME, organism-based; parameters: dose 1200 mg, route oral; settings: in vivo
[6] = Apparent total plasma clearance in fed state healthy human at 1200 mg, po administered as single dose 0; assay type: ADME, organism-based
[7] = Half life in fed state healthy human at 1200 mg, po administered as single dose; assay type: ADME, organism-based; settings: in vivo
[8] = Apparent total volume of distribution in healthy human at 800 mg, po qd after 1 day; assay type: ADME, organism-based; settings: in vivo, read-out: Vz/F
[9] = AUC (0 to infinity) in fed state healthy human at 400 mg, po administered as single dose; assay type: ADME, organism-based; parameters: dose 400 mg, route oral, time infinity; settings: plasma
[10] = Half life in fasted state healthy human at 50 mg, po administered as single dose; assay type: ADME, organism-based; settings: in vivo
[11] = Half life in healthy human at 800 mg, po qd after 7 days; assay type: ADME, organism-based; settings: in vivo
[12] = Tmax in fasted state healthy human at 50 mg, po administered as single dose; assay type: ADME, organism-based; settings: in vivo
[13] = Tmax in fed state healthy human at 200 mg, po administered as single dose; assay type: ADME, organism-based; settings: in vivo
Homo sapiens [14] = experiment: Toxicity in healthy human assessed as occurrence of head ache at 50 to 1200 mg, po administered as single dose; assay type: organism-based; settings: in vivo
Homo sapiens [15] = organism: Homo sapiens; experiment: Protein binding in human; assay type: ADME, organism-based; settings: in vivo
[16] = Plasma concentration in fed state healthy human at 1200 mg, po administered as single dose after 24 hrs; assay type: ADME, organism-based
[17] = Half life in fed state healthy human at 200 mg, po administered as single dose; assay type: ADME, organism-based; settings: in vivo
[18] = Apparent total plasma clearance in healthy human at 400 mg, po bid after 7 days; assay type: ADME, organism-based
[19] = Half life in fasted state healthy human at 400 mg, po administered as single dose; assay type: ADME, organism-based; settings: in vivo
[20] = AUC (0 to infinity) in healthy human at 800 mg, po qd after 1 day; assay type: ADME, organism-based; parameters: dose 800 mg, time infinity, route oral; settings: plasma
Homo sapiens [21] = experiment: Toxicity in healthy human assessed as incidence of dizziness at 400 mg, po bid and 800 mg, po qd for 7 days; assay type: organism-based; settings: in vivo, 168 h
Homo sapiens [22] = experiment: Toxicity in healthy human assessed as incidence of nausea at 400 mg, po bid and 800 mg, po qd for 7 days; assay type: organism-based; settings: in vivo, 168 h
Homo sapiens [23] = experiment: Toxicity in healthy human assessed as incidence of abnormal dreams at 400 mg, po bid and 800 mg, po qd for 7 days; assay type: organism-based; settings: in vivo, 168 h
[24] = Apparent total volume of distribution in fasted state healthy human at 200 mg, po administered as single dose; assay type: ADME, organism-based; settings: in vivo, read-out: Vz/F
[25] = Cmax in healthy human at 400 mg, po bid after 1 day; assay type: ADME, organism-based; parameters: dose 400 mg, route oral; settings: in vivo
[26] = AUC (0 to infinity) in healthy human at 400 mg, po bid after 7 days; assay type: ADME, organism-based; parameters: dose 400 mg, route oral, time infinity; settings: plasma
Homo sapiens [27] = experiment: Toxicity in healthy human assessed as incidence of adverse events at 50 to 1200 mg, po administered as single dose; assay type: organism-based; settings: in vivo
[28] = Apparent total plasma clearance in fasted state healthy human at 400 mg, po administered as single dose; assay type: ADME, organism-based
Homo sapiens [29] = experiment: Toxicity in healthy human assessed as occurrence of dizziness at 50 to 1200 mg, po administered as single dose; assay type: organism-based; settings: in vivo
[30] = Apparent total volume of distribution in fasted state healthy human at 50 mg, po administered as single dose; assay type: ADME, organism-based; settings: in vivo, read-out: Vz/F
[31] = Plasma concentration in fasted state healthy human at 400 mg, po administered as single dose after 24 hrs; assay type: ADME, organism-based
[32] = Apparent total plasma clearance in fed state healthy human at 400 mg, po administered as single dose; assay type: ADME, organism-based
[33] = Cmax in fasted state healthy human at 200 mg, po administered as single dose; assay type: ADME, organism-based; parameters: dose 200 mg, route oral; settings: in vivo
[34] = Trough plasma concentration in healthy human at 400 mg, po bid after 1 day; assay type: ADME, organism-based; settings: read-out: Cmin
Homo sapiens [35] = experiment: Toxicity in healthy human assessed as incidence of adverse events at 400 mg, po bid and 800 mg, po qd for 7 days; assay type: organism-based; settings: in vivo, 168 h
[36] = Cmax in fasted state healthy human at 100 mg, po administered as single dose; assay type: ADME, organism-based; parameters: dose 100 mg, route oral; settings: in vivo
[37] = Tmax in healthy human at 400 mg, po bid after 7 days; assay type: ADME, organism-based; settings: in vivo
[38] = Half life in fed state female healthy human at 400 mg, po administered as single dose; assay type: ADME, organism-based; settings: in vivo
[39] = Cmax in fed state healthy human at 800 mg, po administered as single dose; assay type: ADME, organism-based; parameters: dose 800 mg, route oral; settings: in vivo
[40] = Cmax in fed state healthy human at 400 mg, po administered as single dose; assay type: ADME, organism-based; parameters: dose 400 mg, route oral; settings: in vivo
[41] = Cmax in healthy human at 800 mg, po qd after 1 day; assay type: ADME, organism-based; parameters: dose 800 mg, route oral; settings: in vivo
[42] = Apparent total volume of distribution in healthy human at 800 mg, po qd after 7 days; assay type: ADME, organism-based; settings: in vivo, read-out: Vz/F
[43] = Tmax in fasted state healthy human at 200 mg, po administered as single dose; assay type: ADME, organism-based; settings: in vivo
[44] = Plasma concentration in fed state healthy human at 400 mg, po administered as single dose after 24 hrs; assay type: ADME, organism-based
[45] = Cmax in fed state healthy human at 200 mg, po administered as single dose; assay type: ADME, organism-based; parameters: dose 200 mg, route oral; settings: in vivo
[46] = Tmax in fed state healthy human at 1200 mg, po administered as single dose; assay type: ADME, organism-based; settings: in vivo
[47] = Tmax in fed state female healthy human at 400 mg, po administered as single dose; assay type: ADME, organism-based; settings: in vivo
[48] = Apparent total volume of distribution in fed state healthy human at 1200 mg, po administered as single dose; assay type: ADME, organism-based; settings: in vivo, read-out: Vz/F
[49] = Oral bioavailability in human; assay type: ADME, organism-based; settings: in vivo
[50] = Half life in fed state healthy human at 400 mg, po administered as single dose; assay type: ADME, organism-based; settings: in vivo

COP(=O)(c1cc(C)cc(/C=C/C#N)c1)c1c(C(N)=O)[nH]c2ccc(Cl)cc12 (stereo not given)
CL/F [1]: 297 mL/min
Tmax [2]: 1.8 h
AUC(0-inf) [3]: 54600 ng·h/mL
Tmax [4]: 6 h
Cmax [5]: 5600 ng/mL
CL/F [6]: 197 mL/min
half-life [7]: 7.9 h
Vd/F [8]: 151 L
AUC(0-inf) [9]: 36000 ng·h/mL
half-life [10]: 6.2 h
half-life [11]: 13.6 h
Tmax [12]: 1.5 h
Tmax [13]: 7 h
Activity (Homo sapiens [14]): 8.2%
Activity (Homo sapiens [15]): > 99.8%
concentration at 24 h [16]: 2020 ng/mL
half-life [17]: 9.5 h
CL/F [18]: 268 mL/min
half-life [19]: 14.6 h
AUC(0-inf) [20]: 68000 ng·h/mL
Activity (Homo sapiens [21]): 0%
Activity (Homo sapiens [22]): 0%
Activity (Homo sapiens [23]): 6.3%
Vd/F [24]: 555 L
Cmax [25]: 2000 ng/mL
AUC(0-inf) [26]: 35200 ng·h/mL
Activity (Homo sapiens [27]): 22.4%
CL/F [28]: 480 mL/min
Activity (Homo sapiens [29]): 2%
Vd/F [30]: 53.3 L
concentration at 24 h [31]: 160 ng/mL
CL/F [32]: 215 mL/min
Cmax [33]: 700 ng/mL
concentration at 24 h [34]: 800 ng/mL
Activity (Homo sapiens [35]): 43.8%
Cmax [36]: 3000 ng/mL
Tmax [37]: 4 h
half-life [38]: 13.9 h
Cmax [39]: 3000 ng/mL
Cmax [40]: 2400 ng/mL
Cmax [41]: 4900 ng/mL
Vd/F [42]: 366 L
Tmax [43]: 1.5 h
concentration at 24 h [44]: 360 ng/mL
Cmax [45]: 1300 ng/mL
Tmax [46]: 10.1 h
Tmax [47]: 5 h
Vd/F [48]: 134 L
bioavailability [49]: 61%
half-life [50]: 9.8 h

Reference: ChEMBL document CHEMBL1649173, “Single-dose escalation and multiple-dose safety, tolerability, and pharmacokinetics of IDX899, a candidate human immunodeficiency virus type 1 nonnucleoside reverse transcriptase inhibitor, in healthy subjects” (Antimicrob Agents Chemother, 2009)
